According to patent US10793579B2, “Bicyclic-fused heteroaryl or aryl compounds” (Pfizer Inc., priority 2014, dated 2020):
Read-outs that look alike come from different tables or passages of the source.

Columns and labels:
[1] = test system: R848-induced TNFα production by human peripheral blood mononuclear cells (PBMCs); assay: R848 Induced TNFα in Human PBMC Assay; format: cell-based
Description: R848 Induced TNFα in Human PBMC Assay.
This protocol is for R848-induced TNFα production by human peripheral blood mononuclear cells (PBMCs). […] The assay is used to assess cell-based potency of small molecule inhibitors of IRAK4 in the absence of serum.
The PBMCs in the interphase layer were collected and washed with PBS via centrifugation multiple times until the supernatant is clear. The purified PBMCs were re-suspended in RPMI (Roswell Park Memorial Institute) media (Sigma-Aldrich).
For the assay, a compound dilution plate containing a top concentration of 4 mM compound in DMSO was serially diluted 4-fold for 11 times. 250 nL of the compound dilution plate was spotted into a 384-well, flat bottom with IId, TC-treated, black with clear bottom, sterile, polystyrene plate (Corning Life Sciences).
10 μL of anti-TNFα antibody labeled with MSD SULFO-TAG at 50 μg/mL was added to each well and allowed to incubate overnight at 4° C. […] The plates were then imaged on an MSD Sector Imager 6000.

[2] = test system: collagen-induced arthritis (hind paw volume); assay: In Vivo Rat Collagen-Induced Arthritis Model; conditions: Lewis rat
Description: In Vivo Rat Collagen-Induced Arthritis Model.
Efficacy of IRAK4 compounds of the present invention was also evaluated in a rat in vivo model of rheumatoid arthritis (M. Hegen, J. C. Keith, Jr, M. Collins, C. L. Nickerson-Nutter, Ann. Rheum. Dis. 2008, 67, 1505-1515). An exemplary protocol for this in vivo model follows.
Female Lewis rats, approximately 7 weeks old, were immunized with an emulsion of type II collagen (CII) and incomplete Freund's adjuvant (IFA) on day 0 and received a boost of CII/IFA on day 7. Hind paw volume increase was taken by plethysmograph. Animals were randomly enrolled into treatment groups based on the development of disease. Beginning on day 11 post immunization, rats were enrolled into random treatment groups based on an increase in a single hind paw volume compared to day 7 post immunization baseline measurements.
Ten rats were enrolled per treatment group with the exception of the naive control group, which contained two rats. Day 0 was designated as the first treatment day, and paw measurements are taken daily by plethysmograph. The rats were weighed on a daily basis.
IRAK4 inhibitors are efficacious in the Lewis rat model of collagen-induced arthritis.

[3] = molecular target: human IRAK4 FL (Full Length) (Homo sapiens (Human), UniProt Q9NWZ3); assay: IRAK4 Enzymatic DELFIA Assay, Protocol A; format: biochemical; conditions: 0.6 mM ATP
Sequence of human IRAK4 FL (Full Length) (Q9NWZ3 whole entry): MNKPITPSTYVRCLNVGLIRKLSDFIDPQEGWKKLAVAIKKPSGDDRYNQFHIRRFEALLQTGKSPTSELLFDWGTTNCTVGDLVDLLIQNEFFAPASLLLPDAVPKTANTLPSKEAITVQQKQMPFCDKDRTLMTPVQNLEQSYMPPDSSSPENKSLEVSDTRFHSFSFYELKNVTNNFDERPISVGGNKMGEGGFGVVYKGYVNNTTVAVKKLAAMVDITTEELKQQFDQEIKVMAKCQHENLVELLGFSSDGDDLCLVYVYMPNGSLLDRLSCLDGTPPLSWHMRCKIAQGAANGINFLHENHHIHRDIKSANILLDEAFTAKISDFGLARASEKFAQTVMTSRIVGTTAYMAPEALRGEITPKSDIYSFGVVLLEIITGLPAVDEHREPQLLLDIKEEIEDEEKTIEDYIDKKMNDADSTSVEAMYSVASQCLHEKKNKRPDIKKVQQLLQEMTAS

[4] = human PBMC, absence of serum, read-out: R848-induced TNFa PBMC IC50
[5] = Homo sapiens, PBMC, read-out: R848-induced TNFa PBMC IC50 (nM)

COc1cc2c(OC[C@H]3NC(=O)[C@H]4C3[C@H]4CF)nccc2cc1C(N)=O (stereo in doubt) [Example 303, 1-(((1S,2S,5S,6R)-6-(fluoromethyl)-4-oxo-3-azabicyclo[3.1.0]hexan-2-yl)methoxy)-7-methoxyisoquinoline-6-carboxamide]
IC50 [1, 4]: 6050 nM

Cc1ccc(-n2nc(C(C)(C)C)cc2NC(=O)Nc2ccc(OCCN3CCOCC3)c3ccccc23)cc1 [BIRB796, reference compound]
days with significant reduction of hind paw swelling in CIA rats (t-test, p<0.05 vs. vehicle) ([2]; 30 mg/kg PO, QD, positive control (p38 inhibitor)): Day 1-Day 8

CC(C)Oc1cc2c(OC[C@@H]3CCC(=O)N3)nccc2cc1C(N)=O [Example 26, 1-{[(2S)-5-oxopyrrolidin-2-yl]methoxy}-7-(propan-2-yloxy)isoquinoline-6-carboxamide]
days with significant reduction of hind paw swelling in CIA rats (t-test, p<0.05 vs. vehicle) ([2]; 30 mg/kg PO, BID, therapeutic treatment for 8 days): Day 2-Day 8 | days with significant reduction of hind paw swelling in CIA rats (t-test, p<0.05 vs. vehicle) ([2]; 100 mg/kg PO, BID, therapeutic treatment for 8 days): Day 1-Day 8 (end) | hind paw swelling in CIA rats ([2]; 10 mg/kg PO, BID): transiently significant reduction in hind paw swelling only on Day 5 and Day 6 post treatment | hind paw swelling in CIA rats ([2]; therapeutic treatment BID daily for 8 days, t-test p<0.05 vs. vehicle): reduced the hind paw swelling in CIA rats significantly

COc1cc2c(OC[C@@H]3C[C@@](F)(CC(F)(F)F)C(=O)N3)cccc2cc1C(N)=O [Example 240, 5-{[(2S,4R)-4-fluoro-5-oxo-4-(2,2,2-trifluoroethyl)pyrrolidin-2-yl]methoxy}-3-methoxynaphthalene-2-carboxamide]
IC50 [3]: 2.3 nM

COc1cc2c(OC[C@@H]3C[C@](F)(CC(F)(F)F)C(=O)N3)cccc2cc1C(N)=O [Example 241, 5-{[(2S,4S)-4-fluoro-5-oxo-4-(2,2,2-trifluoroethyl)pyrrolidin-2-yl]methoxy}-3-methoxynaphthalene-2-carboxamide]
IC50 [3]: 161 nM

COc1cc2c(OC[C@H]3C[C@@H](F)C(=O)N3)nccc2cc1C(N)=O [Example 275, 1-{[(2R,4R)-4-fluoro-5-oxopyrrolidin-2-yl]methoxy}-7-methoxyisoquinoline-6-carboxamide]
IC50 [3]: 119 nM | IC50 [1, 5]: 5140 nM

C[C@@H]1[C@H](F)C(=O)N[C@@H]1COc1nccc2cc(C(N)=O)c(OC3CC3)cc12 [Example 281, 7-(cyclopropyloxy)-1-{[(2S,3S,4S)-4-fluoro-3-methyl-5-oxopyrrolidin-2-yl]methoxy}isoquinoline-6-carboxamide]
IC50 [1, 5]: 127 nM

COc1cc2c(OC[C@H]3NC(=O)[C@@H]4[C@@H](CF)[C@@H]43)nccc2cc1C(N)=O [Example 304, 1-{[(1R,2S,5S)-6-(fluoromethyl)-4-oxo-3-azabicyclo[3.1.0]hex-2-yl]methoxy}-7-methoxyisoquinoline-6-carboxamide]
IC50 [1, 4]: 35 nM
